Test results from BindingDB's records for doi:10.1016/s0960-894x(98)00237-6 (Fujisawa Pharmaceutical, 1999).

Assays:
[1] = Compound was evaluated for the inhibition of […] I-CCK-8 binding at Cholecystokinin type B receptor on guinea pig cerebral cortical membranes
[2] = Compound was evaluated for the inhibition of […] I-CCK-8 binding at CCK-B receptor Cholecystokinin type B receptor cerebral cortical membranes

Row | SMILES | IC50 [1] [nM] | IC50 [2] [nM]
1 | CCc1cccc2c1N(CC(=O)N1CC3CCC(CC3)C1)C(=O)C(NC(=O)Nc1cccc(-c3nnn[nH]3)c1)N=C2c1ccccc1F (stereo not drawn) [1-[1-[2-(3-Aza-bicyclo[3.2.2]non-3-yl)-2-oxo-ethyl]-9-ethyl-5-(2-fluoro-phenyl)-2-oxo-2,3-dihydro-1H-benzo[e][1,4]diazepin-3-yl]-3-[3-(1H-tetrazol-5-yl)-phenyl]-urea] | 0.81 | 
2 | O=C(Nc1cccc(-c2nnn[nH]2)c1)NC1N=C(c2ccccc2F)c2cccc(Cl)c2N(CC(=O)N2CC3CCC(CC3)C2)C1=O (stereo not drawn) [1-[1-[2-(3-Aza-bicyclo[3.2.2]non-3-yl)-2-oxo-ethyl]-9-chloro-5-(2-fluoro-phenyl)-2-oxo-2,3-dihydro-1H-benzo[e][1,4]diazepin-3-yl]-3-[3-(1H-tetrazol-5-yl)-phenyl]-urea] |  | 0.66
3 | O=C(Nc1cccc(-c2nnn[nH]2)c1)NC1N=C(c2ccccc2F)c2ccccc2N(CC(=O)N2CC3CCC(CC3)C2)C1=O (stereo not drawn) [1-[1-[2-(3-Aza-bicyclo[3.2.2]non-3-yl)-2-oxo-ethyl]-5-(2-fluoro-phenyl)-2-oxo-2,3-dihydro-1H-benzo[e][1,4]diazepin-3-yl]-3-[3-(1H-tetrazol-5-yl)-phenyl]-urea] | 0.087 | 
